{"source": "PubChem BioAssay (NCI)", "experiment_in_all_cases": "NCI-60 cell line screen, 48 h", "key": {"[1]": {"test_system": "K-562 leukemia"}, "[2]": {"test_system": "MCF7 breast"}, "[3]": {"test_system": "CAKI-1 renal"}, "[4]": {"test_system": "MALME-3M melanoma"}, "[5]": {"test_system": "SF-268 CNS"}, "[6]": {"test_system": "OVCAR-5 ovarian"}, "[7]": {"test_system": "RPMI-8226 leukemia"}, "[8]": {"test_system": "OVCAR-4 ovarian"}, "[9]": {"test_system": "SK-MEL-5 melanoma"}, "[10]": {"test_system": "SK-MEL-28 melanoma"}, "[11]": {"test_system": "MOLT-4 leukemia"}, "[12]": {"test_system": "SR leukemia"}, "[13]": {"test_system": "NCI-H23 lung"}, "[14]": {"test_system": "HCT-15 colon"}, "[15]": {"test_system": "SK-MEL-2 melanoma"}, "[16]": {"test_system": "RXF 393 renal"}, "[17]": {"test_system": "KM12 colon"}, "[18]": {"test_system": "SN12C renal"}, "[19]": {"test_system": "SW-620 colon"}, "[20]": {"test_system": "UACC-62 melanoma"}, "[21]": {"test_system": "DU-145 prostate"}, "[22]": {"test_system": "SNB-19 CNS"}, "[23]": {"test_system": "PC-3 prostate"}, "[24]": {"test_system": "A549 NSCLC"}, "[25]": {"test_system": "HCT-116 colon"}, "[26]": {"test_system": "HL-60(TB) leukemia"}, "[27]": {"test_system": "COLO 205 colon"}, "[28]": {"test_system": "IGROV1 ovarian"}, "[29]": {"test_system": "SK-OV-3 ovarian"}, "[30]": {"test_system": "UACC-257 melanoma"}, "[31]": {"test_system": "SF-295 CNS"}, "[32]": {"test_system": "786-0 renal"}, "[33]": {"test_system": "ACHN renal"}, "[34]": {"test_system": "M14 melanoma"}, "[35]": {"test_system": "HCC-2998 colon"}, "[36]": {"test_system": "HOP-92 NSCLC"}, "[37]": {"test_system": "SF-539 CNS"}, "[38]": {"test_system": "HS 578T breast"}, "[39]": {"test_system": "LOX IMVI melanoma"}, "[40]": {"test_system": "MDA-MB-435"}, "[41]": {"test_system": "HOP-62 NSCLC"}, "[42]": {"test_system": "NCI/ADR-RES ovarian"}, "[43]": {"test_system": "NCI-H460 lung"}, "[44]": {"test_system": "UO-31 renal"}, "[45]": {"test_system": "HT29 colon"}, "[46]": {"test_system": "U251 CNS"}, "[47]": {"test_system": "MDA-N"}, "[48]": {"test_system": "SNB-75 CNS"}, "[49]": {"test_system": "TK-10 renal"}, "[50]": {"test_system": "OVCAR-3 ovarian"}, "[51]": {"test_system": "BT-549 breast"}}, "note": "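A five-concentration, 48-hour dose response in 96-well plates underlies each endpoint, interpolated linearly between surrounding concentrations. TGI: concentration producing complete growth inhibition.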", "data": [{"smiles": "CC(=O)OCC1OC(n2c3c(c(-c4ccco4)c(C#N)c2=S)CCC3)C(OC(C)=O)C(OC(C)=O)C1OC(C)=O", "note": "(stereo unspecified)", "values": [{"measurement": "TGI", "setting": "[1]", "result": "> 100", "unit": "µM"}, {"measurement": "TGI", "setting": "[2]", "result": "> 100", "unit": "µM"}, {"measurement": "TGI", "setting": "[3]", "result": "> 100", "unit": "µM"}, {"measurement": "TGI", "setting": "[4]", "result": "> 100", "unit": "µM"}, {"measurement": "TGI", "setting": "[5]", "result": "> 100", "unit": "µM"}, {"measurement": "TGI", "setting": "[6]", "result": "> 100", "unit": "µM"}, {"measurement": "TGI", "setting": "[7]", "result": "> 100", "unit": "µM"}, {"measurement": "TGI", "setting": "[8]", "result": "> 100", "unit": "µM"}, {"measurement": "TGI", "setting": "[9]", "result": "> 100", "unit": "µM"}, {"measurement": "TGI", "setting": "[10]", "result": "> 100", "unit": "µM"}, {"measurement": "TGI", "setting": "[11]", "result": 45.3, "unit": "µM"}, {"measurement": "TGI", "setting": "[12]", "result": "> 100", "unit": "µM"}, {"measurement": "TGI", "setting": "[13]", "result": "> 100", "unit": "µM"}, {"measurement": "TGI", "setting": "[14]", "result": "> 100", "unit": "µM"}, {"measurement": "TGI", "setting": "[15]", "result": "> 100", "unit": "µM"}, {"measurement": "TGI", "setting": "[16]", "result": 86.9, "unit": "µM"}, {"measurement": "TGI", "setting": "[17]", "result": "> 100", "unit": "µM"}, {"measurement": "TGI", "setting": "[18]", "result": "> 100", "unit": "µM"}, {"measurement": "TGI", "setting": "[19]", "result": "> 100", "unit": "µM"}, {"measurement": "TGI", "setting": "[20]", "result": "> 100", "unit": "µM"}, {"measurement": "TGI", "setting": "[21]", "result": "> 100", "unit": "µM"}, {"measurement": "TGI", "setting": "[22]", "result": "> 100", "unit": "µM"}, {"measurement": "TGI", "setting": "[23]", "result": "> 100", "unit": "µM"}, {"measurement": "TGI", "setting": "[24]", "result": "> 100", "unit": "µM"}, {"measurement": "TGI", "setting": "[25]", "result": "> 100", "unit": "µM"}, {"measurement": "TGI", "setting": "[26]", "result": "> 100", "unit": "µM"}, {"measurement": "TGI", "setting": "[27]", "result": "> 100", "unit": "µM"}, {"measurement": "TGI", "setting": "[28]", "result": "> 100", "unit": "µM"}, {"measurement": "TGI", "setting": "[29]", "result": "> 100", "unit": "µM"}, {"measurement": "TGI", "setting": "[30]", "result": "> 100", "unit": "µM"}, {"measurement": "TGI", "setting": "[31]", "result": "> 100", "unit": "µM"}, {"measurement": "TGI", "setting": "[32]", "result": "> 100", "unit": "µM"}, {"measurement": "TGI", "setting": "[33]", "result": "> 100", "unit": "µM"}, {"measurement": "TGI", "setting": "[34]", "result": "> 100", "unit": "µM"}, {"measurement": "TGI", "setting": "[35]", "result": "> 100", "unit": "µM"}, {"measurement": "TGI", "setting": "[36]", "result": 69, "unit": "µM"}, {"measurement": "TGI", "setting": "[37]", "result": "> 100", "unit": "µM"}, {"measurement": "TGI", "setting": "[38]", "result": "> 100", "unit": "µM"}, {"measurement": "TGI", "setting": "[39]", "result": "> 100", "unit": "µM"}, {"measurement": "TGI", "setting": "[40]", "result": "> 100", "unit": "µM"}, {"measurement": "TGI", "setting": "[41]", "result": "> 100", "unit": "µM"}, {"measurement": "TGI", "setting": "[42]", "result": "> 100", "unit": "µM"}, {"measurement": "TGI", "setting": "[43]", "result": "> 100", "unit": "µM"}, {"measurement": "TGI", "setting": "[44]", "result": "> 100", "unit": "µM"}, {"measurement": "TGI", "setting": "[45]", "result": "> 100", "unit": "µM"}, {"measurement": "TGI", "setting": "[46]", "result": "> 100", "unit": "µM"}, {"measurement": "TGI", "setting": "[47]", "result": "> 100", "unit": "µM"}, {"measurement": "TGI", "setting": "[48]", "result": "> 100", "unit": "µM"}, {"measurement": "TGI", "setting": "[49]", "result": "> 100", "unit": "µM"}, {"measurement": "TGI", "setting": "[50]", "result": "> 100", "unit": "µM"}, {"measurement": "TGI", "setting": "[51]", "result": "> 100", "unit": "µM"}]}]}
